Measurements reported in patent publication US20240391942A1 (priority 2021, published 2024).

What was measured:
Assay in all cases: cells
Type in all cases: cell-based
A-375 = conditions: Homo sapiens, A-375, 72 h
SK-HEP-1 = conditions: Homo sapiens, SK-HEP1, 72 h
NCI-H1299 = conditions: Homo sapiens, NCI-H1299, 72 h
U-937 = conditions: Homo sapiens, U-937, 72 h
SK-OV-3 = conditions: Homo sapiens, SK-OV-3, 72 h
A549 = conditions: Homo sapiens, A549, 72 h
A-431 = conditions: Homo sapiens, A-431, 72 h
HCC827 = conditions: Homo sapiens, HCC827, 72 h

**Q.** Which results are given for CN[C@@H]1C[C@H]2O[C@@](C)([C@@H]1OC)n1c3ccccc3c3c4c(c5c6ccccc6n2c5c31)C(=O)NC4 [Staurosporine]?
**A.** IC50 (A-375): 0.018 µM; IC50 (SK-HEP-1): 0.0169 µM; IC50 (NCI-H1299): 0.0092 µM; IC50 (U-937): 0.0139 µM; IC50 (SK-OV-3): 0.028 µM; IC50 (A549): 0.0131 µM; IC50 (A-431): 0.0211 µM; IC50 (HCC827): 0.0161 µM
